The values below come from PMC9246256, “Structure-based optimization of type III indoleamine 2,3-dioxygenase 1 (IDO1) inhibitors” (Journal of Enzyme Inhibition and Medicinal Chemistry, 2022).

In data set [1] the target is T1, purified recombinant IDO1 (Homo sapiens, UniProt P14902).
T1 construct: Full-length human IDO1 gene was cloned into the pET-28a vector; inferred from pET-28a vector and HisTrap purification; made in house; host or cells: E. coli Rosetta (DE3)
The data set is described as follows: Enzymatic IDO1 inhibition assay (ascorbate/methylene blue reduction system, HPLC detection of kynurenine). The following applies: for LE [kcal/mol/HA]: ligand efficiency, LE = -RT log(IC50)/number of heavy atoms, from enzymatic IC50; for IC50: enzymatic, L-Trp 100 µM, 0.01% Triton X-100, 5% DMSO, 20 min at room temperature, pH 6.5, duplicates, read-out: IC50 [ μ M] (SD). Type of data set: biochemical.
Method: Enzymatic IC50 values were measured with the ascorbate/methylene blue reduction system[85] in presence of a non-ionic detergent to reduce compound aggregation as described before[28]. Kynurenine and L-Trp concentrations were determined by HPLC through UV detection.
Full-length human IDO1 gene was cloned into the pET-28a vector and expressed in E. coli Rosetta (DE3) cells. […] The culture was harvested and frozen at −80 °C until further use. The frozen cells were lysed by sonication in 20 mM Tris pH 7, 400 mM NaCl, 1 mM MgCl2, 20 mM imidazole, 1 mM DTT, 0.5 mg/mL Lysozyme and Protease inhibitor. After centrifugation, the supernatant was loaded into a HisTrap HP column pre-equilibrated with buffer containing 20 mM Tris pH 7, 500 mM NaCl and 20 mM imidazole, and eluted with the same buffer containing 500 mM imidazole. Fractions containing IDO1 were pooled, concentrated, and injected on a size exclusion chromatography column (HiLoad Superdex S75 16/60) to increase purity. hIDO1 fractions were concentrated to 20 mg/mL in 20 mM Tris pH 7 and 150 mM NaCl.
The enzymatic inhibition assays were performed as described by Takikawa et al.[130] with some modifications. Briefly, the reaction mixture (100 µL) contained potassium phosphate buffer (100 mM, pH 6.5) ascorbic acid (20 mM), catalase (400 units/mL), methylene blue (10 µM), purified recombinant IDO1 (2.5 ng/µL), L-Trp (100 µM), Triton X-100 (0.01%) and DMSO (5 µL). The inhibitors were serially diluted 3-fold for at least 8 different concentrations. After incubation at room temperature for 20 min, the reaction was stopped in its linear phase by addition of trichloroacetic acid solution (40 mL, 30% w/v), and the samples were incubated at 50 °C for 30 min. After centrifugation, 80 µl of supernatant from each well were used for HPLC analysis. The mobile phase for HPLC analysis was composed of 50% (v/v) of methanol and 50% of sodium citrate buffer (40 mM, pH 2.4) containing 400 µM sodium dodecyl sulphate. […] All assays were carried out in duplicates. The activity (Act) of each compound was calculated as Act = RT log(IC50) in analogy to the relation between the binding free energy and the Ki value. The ligand efficiency (LE) was calculated as LE = −Act/NHA, where NHA is the number of non-hydrogen atoms (heavy atoms) in the compound.

Data set [2] addresses T2, hIDO1 (Homo sapiens, UniProt P14902).
T2 construct: The full ORF of hIDO1 was cloned into the mammalian expression vector pcDNA6/myc-His; myc-His (vector-encoded); host or cells: HEK 293 T
The following applies: previously determined, cited from earlier work; for Inh. [%]: 200 µM; for IC50: read-out: IC50 [µM] (cellular).

The test system of data set [3] is HEK 293 T cells. As to conditions: previously determined, 200 µM, cited from earlier work.
Data set [4] concerns the target T2, hIDO1. Kind of data set: Cellular hIDO1 inhibition (kynurenine production) in transiently transfected HEK 293 T cells. It counts as cell-based. The protocol:
(§1) We tested the cellular hIDO1 inhibitory activity and toxicity of 30 active compounds at a single concentration (Figure 6 and Table 8). As some of the aniline derivatives reacted with Ehrlich’s reagent (p-dimethylaminobenzaldehyde, p-DMAB) used to quantify kynurenine, the kynurenine content of these samples was determined by HPLC. To be able to detect also weak inhibition, compounds were tested at the high concentration of 200 µM (Figure 6A and B, filled bars), except for less soluble compounds (52, 148, 149 and 153), which were tested at a concentration of 50 µM (Figure 6A and B, empty bars).
The cDNA encoding hIDO1 (NCBI, NM 0021464.3) was purchased from Origene as pCMV6-Entry vector (RC206592). The full ORF of hIDO1 was cloned into the mammalian expression vector pcDNA6/myc-His from Invitrogen. Human embryonic kidney 293 T (HEK 293 T) cells were transiently transfected with the plasmid construct encoding hIDO1. A 75 cm^2 flask containing HEK 293 T cells at a confluency of 70% was transfected with jetPEI DNA transfection reagent (Polyplus-transfection), according to manufacturer’s protocol. A total of 20 µg of pcDNA-IDO1 along with 5 µg of pcDNA-GFP plasmid were used for the transfection; GFP was used to evaluate transfection efficiency prior to the cellular assays. 16–18 h post-transfection the 293 T cells were detached with trypsin, centrifuged, and re-suspended in 25 mL of DMEM medium without phenol red, supplemented with penicillin and streptomycin, 10% foetal bovine serum and 1 mM pyruvate (Gibco). Subsequently, 100 µL of cells were distributed to each well of two 96-well round-bottom plates that had been pre-loaded with 100 µL DMEM and the small organic test molecule in DMSO (for a final DMSO concentration of 2%). DMEM medium contains 78 µM L-Trp and was supplemented with 500 µM of L-Trp. Cells transfected with hIDO1 were incubated for 7 h at 37 °C in a CO2 incubator. The reaction was stopped in its linear phase by adding trichloroacetic acid (TCA) to the medium at a final concentration of 4%. Plates were centrifuged for 15 min at 4,000 rpm. 100 µL of supernatant was added to 100 µL of 2% (w/v) DMAB in glacial acetic acid. After 10 min the absorbance was measured at a wavelength of 480 nm to detect kynurenine formation. Alternatively, kynurenine content was determined by HPLC as done for the enzymatic assay.

Data set [5] deals with HEK 293 T cells. Kind of data set: Cell viability / cellular toxicity (DAPI staining, cytometry). Type of data set: cell-based, human. The following applies: compound 200 µM, 7 h. The method, then:
as §1
Following DMSO (negative control) or inhibitor treatments, apoptotic cells were detected by 4′,6-diamidino-2-phenylindole (DAPI) staining. Briefly, after 7 h of incubation, cells were washed with PBS, resuspended in PBS with 1 µg/mL DAPI and immediately analysed using a BD LSR II cytometer. A 405 nm laser with 450/50 nm bandpass filter was used to collect data.

The mark [6] stands for this setting: ref 1 of Supporting Information (Röhrig et al. 2021).
Where [7] appears, read: ref 3 of Supporting Information (Röhrig et al. 2016).
[8] abbreviates: ref 3 of Supporting Information (= main text ref 62).

“And” between values parts separate entries of the source, which are not always exact repeats. Equal entries are not always repeated. Where two headings read alike, the source gives them in different places.

T1 sequence (P14902 whole entry): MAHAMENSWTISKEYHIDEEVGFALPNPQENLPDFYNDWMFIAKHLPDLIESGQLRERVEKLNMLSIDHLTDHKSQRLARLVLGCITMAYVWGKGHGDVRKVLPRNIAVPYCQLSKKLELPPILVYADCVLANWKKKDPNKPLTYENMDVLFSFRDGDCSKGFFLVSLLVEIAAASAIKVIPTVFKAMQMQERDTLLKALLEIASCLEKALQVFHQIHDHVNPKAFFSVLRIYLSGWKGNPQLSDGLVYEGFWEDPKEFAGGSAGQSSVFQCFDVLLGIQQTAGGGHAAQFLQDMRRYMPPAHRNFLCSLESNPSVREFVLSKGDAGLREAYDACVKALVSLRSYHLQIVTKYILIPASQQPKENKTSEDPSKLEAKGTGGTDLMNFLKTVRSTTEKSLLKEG
T2 sequence (P14902 whole entry): as above

Consider `Nc1ccc(Cl)cc1-c1nnc[nH]1` [Compound 11], for which the “LE [kcal/mol/HA]” value in data set [1] is 0.78 kcal/mol/HA. For the same molecule, in data set [2] (setting [6]), the “Inh. [%]” value was 100%. In addition, the “Tox. [%]” value in data set [3] (setting [6]) is reported as 0%.

Regarding `Clc1cccc(-c2cnn[nH]2)c1CCc1ccccc1` [Compound 13], the IC50 in data set [1] was found to be 14 µM. In data set [1], the “LE [kcal/mol/HA]” value is given as 0.33 kcal/mol/HA. Moreover, the “Inh. [%]” value in data set [2] (setting [7]) is on record as 76%. Moreover, the “Tox. [%]” value is listed as 71% in data set [3] (setting [8]) and 70% in data set [3] (ref 3 of Supporting Information (= main text ref 62), listed as MMG-0472).

With `c1ccc(-c2cnn[nH]2)cc1` [Compound 19], the “Inh. [%]” value in data set [2] (setting [6]) is 93%. Moreover, the “Tox. [%]” value in data set [3] (setting [6]) was 3%.

In the case of `Oc1ccccc1-c1cnn[nH]1` [Compound 29], the “LE [kcal/mol/HA]” value in data set [1] is recorded as 0.64 kcal/mol/HA. Besides, the “Inh. [%]” value in data set [2] (setting [6]) is 95%. In addition, in data set [3] (setting [6]), the “Tox. [%]” value is recorded as 0%.

Regarding `Clc1cccc(-c2cnn[nH]2)c1` [Compound 30], the “LE [kcal/mol/HA]” value in data set [1] turned out to be 0.73 kcal/mol/HA. In addition, in data set [2] (setting [6]), the “Inh. [%]” value was 95%. The “Tox. [%]” value in data set [3] (setting [6]) is given as 0%.

As for `Oc1ccc(Cc2ccccc2)cc1-c1cnn[nH]1` [Compound 38, 4-Benzyl-2-(1H-1,2,3-triazol-5-yl)phenol], the melting point lay in the range of 148 to 151 °C. In data set [1], the IC50 was determined as 88 µM and the “LE [kcal/mol/HA]” value turned out to be 0.29 kcal/mol/HA.

Consider `Clc1cccc(-c2cnn[nH]2)c1CCC1CCCC1` [Compound 40], for which, in data set [1], the IC50 came out at 9.5 µM and the “LE [kcal/mol/HA]” value worked out at 0.36 kcal/mol/HA. In addition, the “Inh. [%]” value in data set [2] (setting [7]) is recorded as 71%. The “Tox. [%]” value in data set [3] (setting [8]) is given as 22%.

Regarding `Clc1cccc(-c2cnn[nH]2)c1/C=C/c1ccccc1` [Compound 41], in data set [1], the IC50 was 49 µM and the “LE [kcal/mol/HA]” value stood at 0.29 kcal/mol/HA. The “Inh. [%]” value in data set [2] (setting [7]) is reported as 32%. For the same molecule, the “Tox. [%]” value in data set [3] (setting [8]) is recorded as 58%.

For `Clc1cccc(-c2c[nH]nn2)c1OCCc1ccccc1` [Compound 43, 4–(3-Chloro-2-phenethoxyphenyl)-1,2,3-triazole], the melting point lay in the range of 96 to 99 °C. In addition, in data set [1], the IC50 amounted to 31 µM and the “LE [kcal/mol/HA]” value was 0.29 kcal/mol/HA.

In the case of `Oc1cccc(O)c1-c1cnn[nH]1` [Compound 44, 2-(1H-1,2,3-triazol-5-yl)benzene-1,3-diol], the melting point was in the range of 257 to 259 °C. In addition, in data set [1], the IC50 is 13 µM and the “LE [kcal/mol/HA]” value is 0.51 kcal/mol/HA.

For the molecule `Clc1cccc(-c2cnn[nH]2)c1Cl` [Compound 47], in data set [1], the “LE [kcal/mol/HA]” value is 0.49 kcal/mol/HA. Besides, the IC50 in data set [2] (ref 4 of Supporting Information (Röhrig et al. 2012)) is greater than 100 µM.

For the molecule `Clc1cc(Cl)c(-c2c[nH]nn2)c(Cl)c1` [Compound 53, 4–(2,4,6-Trichlorophenyl)-1,2,3-triazole], the melting point is 236 to 238 °C. Moreover, the half-maximal inhibitory concentration (IC50) in data set [1] is greater than 500 µM.

The molecule `Cc1[nH]nnc1-c1cc(Cl)ccc1O` [Compound 68, 4-Chloro-2–(5-methyl-1,2,3-triazol-4-yl)phenol] returned a melting point of 149 to 151 °C. Besides, in data set [1], the IC50 was found to be 220 µM and the “LE [kcal/mol/HA]” value is reported as 0.36 kcal/mol/HA.

`O=C(c1cnn[nH]1)c1cc(Cl)ccc1O` [Compound 111, (5-Chloro-2-hydroxyphenyl)(1H-1,2,3-triazol-5-yl)methanone]: the melting point was 186 to 188 °C. Also, in data set [1], the IC50 was 365 µM and 370 µM; the “LE [kcal/mol/HA]” value worked out at 0.31 kcal/mol/HA. The inhibition at 200 µM in data set [4] came out at 20%. Also, in data set [5], the “Tox. [%]” value is on record as 0 (0) %.

In the case of `O=C(c1cnn[nH]1)c1ccc(Br)cc1O` [Compound 113, (4-Bromo-2-hydroxyphenyl)(1H-1,2,3-triazol-5-yl)methanone], the melting point was in the range of 192 to 194 °C. Also, in data set [1], the IC50 came out at 8.2 µM and the “LE [kcal/mol/HA]” value is recorded as 0.46 kcal/mol/HA. Moreover, the inhibition at 200 µM in data set [4] came out at 36%. The “Tox. [%]” value in data set [5] is on record as 0 (0) %.

Take `O=C(c1csnn1)c1cnn[nH]1` [Compound 119, (1,2,3-Thiadiazol-4-yl)(1H-1,2,3-triazol-5-yl)methanone]: the melting point was in the range of 170 to 172 °C. In data set [1], the half-inhibitory concentration (IC50) is 515 µM and 510 µM; the “LE [kcal/mol/HA]” value stood at 0.37 kcal/mol/HA. Moreover, the inhibition at 200 µM in data set [4] turned out to be 4.8%. The “Tox. [%]” value in data set [5] was 0 (0) %.

With `O=C(c1ccccn1)c1cnn[nH]1` [Compound 120, Pyridin-2-yl(1H-1,2,3-triazol-5-yl)methanone], the melting point is 161 to 163 °C. In data set [1], the IC50 was greater than 1000 µM.

In turn, `O=C(c1ccncc1)c1cnn[nH]1` [Compound 122, Pyridin-4-yl(1H-1,2,3-triazol-5-yl)methanone] showed a melting point of 221 to 223 °C. In data set [1], the IC50 was 1200 µM.

As to `c1ccc(-c2nnc[nH]2)cc1` [Compound 133], the “Inh. [%]” value in data set [2] (setting [6]) is 0%. Moreover, the “Tox. [%]” value in data set [3] (setting [6]) is listed as 0%.

On to `Clc1cccc(-c2nnc[nH]2)c1` [Compound 136], for which the “LE [kcal/mol/HA]” value in data set [1] is 0.51 kcal/mol/HA. Moreover, in data set [2] (setting [6]), the “Inh. [%]” value was 78%. Further, in data set [3] (setting [6]), the “Tox. [%]” value is 0%.

For `Oc1ccccc1-c1nnc[nH]1` [Compound 138], the “LE [kcal/mol/HA]” value in data set [1] is reported as 0.51 kcal/mol/HA. The “Inh. [%]” value in data set [2] (setting [6]) is reported as 52%. The “Tox. [%]” value in data set [3] (setting [6]) is 6%.

For the molecule `Nc1ccccc1-c1nnc[nH]1` [Compound 139, 3–(2-aminophenyl)-1,2,4-triazole], in data set [1], the “LE [kcal/mol/HA]” value turned out to be 0.65 kcal/mol/HA. Further, in data set [2] (setting [6]), the “Inh. [%]” value is 100% and the IC50 is 4.6 µM. Further, in data set [3] (setting [6]), the “Tox. [%]” value is on record as 0%.

With `CNc1ccc(Cl)cc1-c1nc[nH]n1` [Compound 145, 4-Chloro-N-methyl-2-(1H-1,2,4-triazol-3-yl)aniline], the melting point lay in the range of 207 to 209 °C. In data set [1], the IC50 is 8.6 µM and 8.7 µM; the “LE [kcal/mol/HA]” value came out at 0.49 kcal/mol/HA. The same molecule returned an inhibition at 200 µM in data set [4] of 93%. Besides, the “Tox. [%]” value in data set [5] is 0 (0) %.

Take `CCC(=O)Nc1ccc(Cl)cc1-c1nc[nH]n1` [Compound 147, N-(4-Chloro-2-(1H-1,2,4-triazol-3-yl)phenyl)propionamide]: the melting point was 168 to 171 °C. Besides, in data set [1], the IC50 is 1.2 µM and the “LE [kcal/mol/HA]” value came to 0.47 kcal/mol/HA. For the same molecule, testing at 200 µM in data set [4] gave an inhibition of 100%. For the same molecule, the “Tox. [%]” value in data set [5] was 16 (1) %.

The molecule `Cc1c(Cl)ccc(N)c1-c1nc[nH]n1` [Compound 156, 4-Chloro-3-methyl-2-(1H-1,2,4-triazol-3-yl)aniline] returned a melting point of 208 to 210 °C. Moreover, in data set [1], the IC50 came out at 90 µM and the “LE [kcal/mol/HA]” value worked out at 0.39 kcal/mol/HA.

Molecule `Nc1ccc(Cl)c(N)c1-c1nc[nH]n1` [Compound 157, 4-Chloro-2-(1H-1,2,4-triazol-3-yl)benzene-1,3-diamine] returned a melting point of 212 to 214 °C. Besides, in data set [1], the IC50 is 1 µM and the “LE [kcal/mol/HA]” value was 0.55 kcal/mol/HA.
